# Patent US20140296968A1, “IMPLANTABLE VASCULAR STENT” (Translumina GmbH, priority 2011, published 2014)
# Test: release of rapamycin in vivo
structure (smiles),measurement,value
CO[C@H]1C[C@@H]2CC[C@@H](C)[C@@](O)(O2)C(=O)C(=O)N2CCCC[C@H]2C(=O)O[C@H]([C@H](C)C[C@@H]2CC[C@@H](O)[C@H](OC)C2)CC(=O)[C@H](C)/C=C(\C)[C@@H](O)[C@@H](OC)C(=O)[C@H](C)C[C@H](C)/C=C/C=C/C=C/1C [rapamycin],duration of the release of rapamycin,4 to 6 weeks
